Laboratory results as given in publication PMC6095626, “Screening of the Pathogen Box for inhibitors with dual efficacy against Giardia lamblia and Cryptosporidium parvum” (PLoS Neglected Tropical Diseases, 2018).
Where “and” joins values, the source holds several entries; their conditions need not be identical. Equal entries are not always repeated. Where two headings read alike, the source gives them in different places. Marks after values point to notes of the source that are not given here.

Experiments:
[1] = system: G. lamblia trophozoites (luciferase expressing, WBC6); test: microbe, parasite or virus in culture; type: cell-based, Giardia lamblia; settings: for EC50: read-out: G. lamblia EC50; for inhibition at 16 µM: read-out: Giardia (16 uM) Mean % inhibition; for Giardia (16 uM) Mean % inhibition: initial Pathogen Box screen, single concentration 16 µM, inhibition compared to DMSO wells
How it was run: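 Luciferase-expressing WBC6 trophozoites plated at 250,000 cells/mL, compounds added 1:1, incubated anaerobically (GasPak bags) at 37 °C for 24 h; viability read by bioluminescence, with duplicate plates counted on a MOXI Z cell counter. Metronidazole control serially diluted 1:2 from 40 μM.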

[2] = system: C. parvum (UGA1 Nluc expressing strain in HCT-8 cells); test: microbe, parasite or virus in culture; type: cell-based, Cryptosporidium parvum; settings: for Crypto (10 uM) Mean % inhibition: initial Pathogen Box screen, single concentration 10 µM, inhibition compared to DMSO wells
How it was run: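 HCT-8 monolayers grown 48 h to 90–100% confluence, treated with compound at 10 μM or serial dilutions, then infected with bleach-treated UGA1 Nluc C. parvum oocysts.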

[3] = Cytotoxicity against HepG2 cells, AlamarBlue viability assay, 48 hours; type: cell-based, human; settings: human, HepG2 cells, read-out: HepG2 CC50 (this study)
Source text: (§1) Mammalian cell cytotoxicity assay data performed on HepG2 (human hepatocellular carcinoma) cells and described as CC20 or CC50 values are provided in supporting documentation that accompanied the Pathogen Box for approximately three quarters of the 400 compounds. However, no details of the assay conditions or parameters were provided. In this study, selected compounds were further tested for cytotoxicity against HepG2 cells as previously described. Briefly, cells were exposed to two-fold serial dilutions of compounds for 48 hours and cytotoxicity was assessed using the AlamarBlue® viability assay (Thermo Fisher Scientific, Waltham, MA). Each dilution was assayed in quadruplicate and concentrations causing 50% growth inhibition (CC50) were calculated by non-linear regression using GraphPad Prism 7 software (GraphPad Software, San Diego, CA).

HepG2 cells [4] = settings: ref Pathogen_Box_Activity_Biological_Data_ Structure & Smiles (https://www.pathogenbox.org/about-pathogen-box/composition), cited from earlier work; for HepG2 CC20 (literature values): CC20 (footnote ^); for CC50: read-out: HepG2 CC50 (literature values)
G. lamblia = settings: read-out: G. lamblia EC50 (literature), cited from earlier work
HepG2 cells [5] = test: Cytotoxicity against HepG2 cells, AlamarBlue viability assay, 48 hours; type: cell-based, human; settings: read-out: HepG2 CC50 (this study)
Source text: as §1

[6] = Cryptosporidium parvum, HCT-8, read-out: Crypto (10 uM) Mean % inhibition
[7] = Cryptosporidium parvum, HCT-8, 48 h, read-out: C. parvum EC50, Nluc C. parvum in HCT-8 cells, 48 hours
[8] = luciferase expressing G. lamblia trophozoites, 24 hours, D-luciferin bioluminescence read-out
[9] = Nluc C. parvum in HCT-8 cells, 48 hours, read-out: C. parvum EC50

Compound	Giardia (16 uM) Mean % inhibition [1]	EC50 [1, 8]	Crypto (10 uM) Mean % inhibition [2]	CC50 (HepG2 cells [5])	CC50 (HepG2 cells [4])	also measured
CC1CS(=O)(=O)CCN1/N=C/c1ccc([N+](=O)[O-])o1 (stereo not shown) [MMV001499, Nifurtimox, reference compound]						EC50 ([1]; Giardia duodenalis, 24 h): 640 ± 120 nM; inhibition at 16 µM ([1]; Giardia duodenalis): 97%; inhibition at 10 µM [2, 6]: < 0%; CC50 at 48 h [3]: > 40000 nM; HepG2 CC20 (literature values) (HepG2 cells [4]): >80 ^* ^^ μM; EC50 (G. lamblia; reference strain WB (48h)): 370 nM
Oc1c(I)cc(I)c2cccnc12 [MMV002817, Iodoquinol, reference compound]						EC50 ([1]; Giardia duodenalis, 24 h): 2520 ± 450 nM; inhibition at 16 µM ([1]; Giardia duodenalis): 82%; EC50 [2, 7]: 480 ± 200 nM; inhibition at 10 µM ([2]; Cryptosporidium parvum, HCT-8, 48 h, read-out: C. parvum cell growth inhibition in the initial screen): ≥ 95%; inhibition at 10 µM [2, 6]: 95%; CC50 at 48 h [3]: ~40000 nM; HepG2 CC20 (literature values) (HepG2 cells [4]): 2.50 ^* ^^ μM
COc1cc(-c2cc(-c3ccc(S(C)(=O)=O)cc3)cnc2N)ccc1O [MMV010576]	94%	1900 ± 280 nM	87%	> 40000 nM	> 10000 nM	EC50 [2, 9]: 3000 nM and 2990 nM
O=C(Nc1ccc(N2CCNCC2)cc1)c1ccn2ncc(-c3cccc(Cl)c3)c2n1 [MMV022478]	98%	2410 ± 120 nM	X* (Mean or standard deviation are negative but not significantly different from the control to be a growth promoter)	> 40000 nM	> 10000 nM	
OCCc1ccc(Nc2nccc(-c3nnc4ccccn34)n2)cc1 [MMV028694]	99%	3880 ± 1270 nM	85%	15900 nM	8100 nM	EC50 [2, 9]: 1560 ± 500 nM
CC(C)(C)c1cnc(NC(=O)c2ccccc2O)s1 [MMV495543]	97%	2770 ± 210 nM	51%	> 40000 nM	47600 nM	
O=C(Nc1cccnc1)c1c(O)c2cccc3c2n(c1=O)CC3 [MMV676395]	98%	1570 ± 200 nM	85%	> 40000 nM	> 100000 nM	C. parvum EC50 ([2]; Nluc C. parvum in HCT-8 cells, 48 hours): not potent
O=C(Nc1nnc(-c2ccc(Cl)s2)o1)c1ccc(Cl)s1 [MMV676501]	78%	1400 ± 200 nM	93%	> 40000 nM	50100 nM	EC50 [2, 9]: 4960 ± 1800 nM
CN1CCN(CCCOc2ncc(Nc3ncc(-c4ccc(C(F)(F)F)c(F)c4)nc3C(N)=O)cn2)CC1 [MMV687812]	98%	1250 ± 120 nM	66%	5330 nM	3900 nM	
C[C@]1(COc2ccc(N3CCC(Oc4ccc(OC(F)(F)F)cc4)CC3)cc2)Cn2cc([N+](=O)[O-])nc2O1 [MMV688262, Delamanid, reference compound]					72500 nM	EC50 ([1]; Giardia duodenalis, 24 h): 550 ± 40 nM; inhibition at 16 µM ([1]; Giardia duodenalis): 97%; inhibition at 10 µM [2, 6]: < 0%; CC50 at 48 h [3]: > 40000 nM
O=[N+]([O-])c1cn2c(n1)OC[C@@H](OCc1ccc(OC(F)(F)F)cc1)C2 [MMV688755]	99%	1570 ± 380 nM	17%	> 40000 nM	> 50000 nM	
COc1ccc2nccc(NC(=O)C3CCN(CCc4ccc(Cl)cc4)CC3)c2n1 [MMV688844]	98%	2300 ± 430 nM	X* (Mean or standard deviation are negative but not significantly different from the control to be a growth promoter)	> 40000 nM	> 50000 nM	
CC(=O)Oc1ccccc1C(=O)Nc1ncc([N+](=O)[O-])s1 [MMV688991, Nitazoxanide, reference compound]						EC50 ([1]; Giardia duodenalis, 24 h): 800 ± 100 nM; inhibition at 16 µM ([1]; Giardia duodenalis): 97%; EC50 [2, 7]: 3100 ± 400 nM; inhibition at 10 µM [2, 6]: 92%; CC50 at 48 h [3]: 10700 nM; HepG2 CC20 (literature values) (HepG2 cells [4]): 6.35 ^* ^^ μM; EC50 (G. lamblia; WB strain (48h)): 800 nM; EC50 (G. lamblia; reference strain WB (48h)): 610 nM
COc1ccc(C2=NN(C3CCCCCC3)C(=O)[C@@H]3CC=CC[C@H]23)cc1OCCCCOc1ccc(-c2nn[nH]n2)cc1 [MMV690027]	24%		44%			
COc1ccc(C2=NN(C3CCCCCC3)C(=O)C2(C)C)cc1OCCCCOc1ccc(-c2nn[nH]n2)cc1 [MMV690028]	70%		61%			
COc1ccc(Oc2ccc([C@@H](C)N(C)c3ncc4c(N)nc(N)nc4n3)cc2)cc1 [MMV690102]	62%		77%			
C[C@H](c1ccc2c(c1)CCCC2)N(C)c1ncc2c(N)nc(N)nc2n1 [MMV690103]	49%		78%			
CCc1ccc(C(NCc2nc(N)nc(N(C)C)n2)C(C)C)cc1 (stereo not shown) [MMV1019989]	4.4%		X* (Mean or standard deviation are negative but not significantly different from the control to be a growth promoter)			
O=C(Nc1nc(-c2ccccn2)cs1)C1CC1c1ccccc1F (stereo not shown) [MMV1028806]	X* (Mean or standard deviation are negative but not significantly different from the control to be a growth promoter)		91%			
CNC(=O)CNc1nc(-c2ccccn2)nc2scc(-c3ccccc3)c12 [MMV1029203]	4%		21%			
CCCn1c(NC(=O)c2ccc3ccccc3n2)nc2ccccc21 [MMV1030799]	13%		81%			
CCNC(=O)C(C)Nc1nc(-c2cccnc2)nc2sc(C)c(C)c12 (stereo not shown) [MMV1037162]	11%		20%			
Cc1ccc(-c2nc(CN(Cc3ccccn3)C(C)C)cs2)o1 [MMV1088520]	52%		27%			
COc1cccn2c(C(=O)N3CCCCC3)c(C(F)(F)F)nc12 [MMV1110498]	61%		60%			
Cc1cc(OCC(=O)Nc2ccc(C(C)C)cc2)n(C)c(=O)c1C#N [MMV1198433]	10%		52%			
CCOC(=O)c1noc(N)c1-c1ccccc1 [MMV1236379]	X* (Mean or standard deviation are negative but not significantly different from the control to be a growth promoter)		X* (Mean or standard deviation are negative but not significantly different from the control to be a growth promoter)			
CCCSc1ccc2nc(NC(=O)OC)[nH]c2c1 [albendazole, Albendazole, reference compound]						EC50 ([1]; Giardia duodenalis, 24 h): 410 nM; EC50 (G. lamblia; reference strain WB (48h)): 230 nM
